This note sets out measurements from patent publication US10130633B2, “Compounds” (BAYER PHARMA AKTIENGESELLSCHAFT, priority 2013, dated 2018).

Structures are written as SMILES. Like-named read-outs stand apart in the source and are kept apart here. Where only a bound is given, the exact number is not on record here.

In test [1] the test system is HEK293 FOP control reporter cell line. The test can be described thus: HEK293 FOP control reporter assay. The conditions noted are these: read-out: HEK FOP IC50. Type of test: cell-based, human. On the procedure:
Measurement of luciferase expression was done as described for the constitutive active Wnt assay.
In a parallel approach, HEK293 cells were cotransfected with the FOP control vector and pcDNA3. The FOP vector is identical to the TOP construct, but it contains instead of functional TCF elements a randomized, non-functional sequence. For this transfection a stable transfected cell line was generated as well, based on selection with Geneticin (1 mg/ml).
A general note: Reporter assays use an easily measured gene product as a stand-in for the process of interest.

Test [2] concerns HCT116 FOP control reporter cell line. Briefly: HCT116 FOPFlash control reporter assay (FOP control vector, non-functional TCF elements). Type of test: cell-based. The conditions noted are these: HCT116 FOP control reporter cells, 36 hours incubation, luciferase expression. The source says: In a parallel approach, HCT116 cells were cotransfected with the FOP control vector and pcDNA3. The FOP vector is identical to the TOP construct, but it contains instead of functional TCF elements a randomized, non-functional sequence. For this transfection a stable transfected cell line was generated as well.

The subject of test [3] is constitutive active colorectal cancer cell (CRC) Wnt pathway. Briefly: HCT116 TOPFlash cellular reporter assay (Super TopFlash luciferase), constitutive active Wnt pathway. Type of test: cell-based. Conditions: HCT116 TOP reporter cells, 36 hours incubation, luciferase expression. On the procedure: In order to discover and characterize small molecules which inhibit the constitutive active colorectal cancer cell (CRC) Wnt pathway, a cellular reporter assay was employed. […] Stable transfectants were generated by cotransfection with pcDNA3 and selection of stable transfected cells with 1 mg/ml G418.

For orientation: IC50 means the concentration at which inhibition is half-maximal. For `O=C(CN1CCOCC1)Nc1cc(C(=O)Nc2ncc(-c3ccccc3)s2)ccc1OC(F)(F)F` [Example 14, 3-[(morpholin-4-ylacetyl)amino]-N-(5-phenyl-1,3-thiazol-2-yl)-4-(trifluoromethoxy)benzamide], the IC50 in test [1] (Homo sapiens, HEK293, 16 h) is ≥ 50 µM.
For `O=C(CN1CCOCC1)Nc1cc(NC(=O)c2ccc(-c3cc(F)cc(F)c3)nc2)ccc1OC(F)(F)F` [Example 27, 6-(3,5-difluorophenyl)-N-{3-[(morpholin-4-ylacetyl)amino]-4-(trifluoromethoxy)phenyl}nicotinamide], the IC50 in test [1] (Homo sapiens, HEK293, 16 h) is ≥ 50 µM.
Turning to `O=C(CN1CCOCC1)Nc1cc(NC(=O)c2ccc(-c3cccc(F)c3F)nc2)ccc1OC(F)(F)F` [Example 26, 6-(2,3-difluorophenyl)-N-{3-[(morpholin-4-ylacetyl)amino]-4-(trifluoromethoxy)phenyl}nicotinamide], the IC50 in test [1] (Homo sapiens, HEK293, 16 h) was ≥ 50 µM.
On the same count and under the same terms, in the case of `Cc1ccc(C(=O)Nc2ccc(-c3ccccc3F)nc2)cc1NC(=O)C1(N2CCOCC2)CC1` [Example 76, N-[6-(2-fluorophenyl)pyridin-3-yl]-4-methyl-3-({[1-(morpholin-4-yl)cyclopropyl]carbonyl}amino)benzamide] it was ≥ 50 µM; in that of `O=C(CN1CCN(C2CC2)CC1)Nc1cc(C(=O)Nc2ccc(-c3ccccc3F)nc2)ccc1OC(F)(F)F` [Example 63, 3-{[(4-cyclopropylpiperazin-1-yl)acetyl]amino}-N-[6-(2-fluorophenyl)pyridin-3-yl]-4-(trifluoromethoxy)benzamide], ≥ 50 µM.
As for `C[C@@H](C(=O)Nc1cc(C(=O)Nc2ccc(-c3ccccc3F)nc2)ccc1OC(F)(F)F)N1CCOCC1` (single isomer, unassigned) [Example 9, N-[6-(2-fluorophenyl)pyridin-3-yl]-3-{[(2S)-2-(morpholin-4-yl)propanoyl]amino}-4-(trifluoromethoxy)benzamide or N-[6-(2-fluorophenyl)pyridin-3-yl]-3-{[(2R)-2-(morpholin-4-yl)propanoyl]amino}-4-(trifluoromethoxy)benzamide], the IC50 in test [1] (HEK293 FOP control cells, EC50 concentration of recombinant Wnt-3a, 16 hours) is 8.2 µM.
Turning to `COCc1ccc(C(=O)Nc2nnc(-c3ccccc3)s2)cc1NC(=O)C1(N2CCN(C3CC3)CC2)CC1` [Example 44, 3-({[1-(4-cyclopropylpiperazin-1-yl)cyclopropyl]carbonyl}amino)-4-(methoxymethyl)-N-(5-phenyl-1,3,4-thiadiazol-2-yl)benzamide], in test [1] (Homo sapiens, HEK293, 16 h), the IC50 was ≥ 50 µM.
Same read-out and setting: the value for `CC(=O)Nc1ccc(-c2ccc(NC(=O)c3ccc(OC(F)(F)F)c(NC(=O)C(C)N4CCOCC4)c3)cn2)cc1` (stereo not shown) [Example 113, N-[6-(4-acetamidophenyl)pyridin-3-yl]-3-{[2-(morpholin-4-yl)propanoyl]amino}-4-(trifluoromethoxy)benzamide] was ≥ 50 µM; that for `O=C(Nc1nnc(-c2ccccc2)s1)c1ccc(OC(F)F)c(NC(=O)C2(N3CCOCC3)CC2)c1` [Example 37, 4-(difluoromethoxy)-3-({[1-(morpholin-4-yl)cyclopropyl]carbonyl}amino)-N-(5-phenyl-1,3,4-thiadiazol-2-yl)benzamide] was ≥ 50 µM; that for `O=C(Nc1ccc(-c2ccccc2F)nc1)c1ccc(OC(F)(F)F)c(NC(=O)C2(N3CCN(C4CC4)CC3)CC2)c1` [Example 67, 3-({[1-(4-cyclopropylpiperazin-1-yl)cyclopropyl]carbonyl}amino)-N-[6-(2-fluorophenyl)pyridin-3-yl]-4-(trifluoromethoxy)benzamide] was ≥ 50 µM.
Still for that read-out and setting: the value for `CN1CCN(CC(=O)Nc2cc(C(=O)Nc3nnc(-c4cccc(Cl)c4)s3)ccc2OC(F)(F)F)CC1` [Example 151, N-[5-(3-chlorophenyl)-1,3,4-thiadiazol-2-yl]-3-{[(4-methylpiperazin-1-yl)acetyl]amino}-4-(trifluoromethoxy)benzamide] was ≥ 50 µM; that for `COc1ccc(-c2ccc(C(=O)Nc3ccc(OC)c(NC(=O)CN4CCOCC4)c3)s2)cc1` [Example 35, N-{4-methoxy-3-[(morpholin-4-ylacetyl)amino]phenyl}-5-(4-methoxyphenyl)thiophene-2-carboxamide] was ≥ 50 µM.
Same read-out and setting: in the case of `O=C(CN1CCN(C2CC2)CC1)Nc1cc(C(=O)Nc2nnc(-c3ccccc3)s2)ccc1OC(F)(F)F` [Example 53, 3-{[(4-cyclopropylpiperazin-1-yl)acetyl]amino}-N-(5-phenyl-1,3,4-thiadiazol-2-yl)-4-(trifluoromethoxy)benzamide] it was ≥ 50 µM; in that of `O=C(Nc1ccc(OC(F)(F)F)c(NC(=O)C2(N3CCOCC3)CC2)c1)c1ccc(-c2ccccc2)nc1` [Example 61, N-[3-({[1-(morpholin-4-yl)cyclopropyl]carbonyl}amino)-4-(trifluoromethoxy)phenyl]-6-phenylnicotinamide], ≥ 50 µM; in that of `CC(C(=O)Nc1cc(C(=O)Nc2ccc(-c3ccccc3F)nc2)ccc1OC(F)(F)F)N1CCN(C)CC1` (stereo not shown) [Example 64, N-[6-(2-fluorophenyl)pyridin-3-yl]-3-{[2-(4-methylpiperazin-1-yl)propanoyl]amino}-4-(trifluoromethoxy)benzamide], ≥ 50 µM.
Take `CC(C(=O)Nc1cc(C(=O)Nc2nnc(-c3ccccc3)s2)ccc1OC(F)(F)F)N1CCN(C)CC1` (stereo not shown) [Example 58, 3-{[2-(4-methylpiperazin-1-yl)propanoyl]amino}-N-(5-phenyl-1,3,4-thiadiazol-2-yl)-4-(trifluoromethoxy)benzamide]: the IC50 in test [1] (Homo sapiens, HEK293, 16 h) is ≥ 50 µM.
Regarding `C[C@@H](C(=O)Nc1cc(C(=O)Nc2ccc(-c3ccc(CO)cc3)nc2)ccc1OC(F)(F)F)N1CCOCC1` (single isomer, unassigned) [Example 119, N-{6-[4-(hydroxymethyl)phenyl]pyridin-3-yl}-3-{[(2S)-2-(morpholin-4-yl)propanoyl]amino}-4-(trifluoromethoxy)benzamide or N-{6-[4-(hydroxymethyl)phenyl]pyridin-3-yl}-3-{[(2R)-2-(morpholin-4-yl)propanoyl]amino}-4-(trifluoromethoxy)benzamide], the IC50 in test [2] is ≥ 50 µM; in test [3], 0.65 µM.
As for `CN1CCN(CC(=O)Nc2cc(C(=O)Nc3nnc(-c4ccccc4)s3)ccc2Br)CC1` [Example 94, 4-bromo-3-{[(4-methylpiperazin-1-yl)acetyl]amino}-N-(5-phenyl-1,3,4-thiadiazol-2-yl)benzamide], the IC50 in test [2] (Homo sapiens, HCT-116, 36 h) is ≥ 50 µM; in test [3] (Homo sapiens, HCT-116, 36 h), 0.433 µM.
As to `CC(C(=O)Nc1cc(NC(=O)c2ccc(-c3cccc(F)c3)nc2)ccc1OC(F)(F)F)N1CCOCC1` (stereo not shown) [Example 190, 6-(3-fluorophenyl)-N-[3-{[2-(morpholin-4-yl)propanoyl]amino}-4-(trifluoromethoxy)phenyl] nicotinamide], the half-maximal inhibitory concentration (IC50) in test [2] was determined as 9.5 µM; in test [3], 0.087 µM.
The matching figures for `CC(C(=O)Nc1cc(NC(=O)c2ccc(-c3cccc(F)c3)nc2)ccc1OC(F)(F)F)N1CC2CCC(C1)O2` (stereo not shown) [Example 188, 6-(3-fluorophenyl)-N-[3-{[2-(8-oxa-3-azabicyclo[3.2.1]oct-3-yl)propanoyl]amino}-4-(trifluoromethoxy)phenyl] nicotinamide]: 5.5 µM and 0.12 µM.
Take `CC(C(=O)Nc1cc(C(=O)Nc2ccc(-c3cccc(F)c3)nc2)ccc1OC(F)(F)F)N1CCOCC1` (stereo not shown) [Example 182, N-[6-(3-fluorophenyl)pyridin-3-yl]-3-{[2-(morpholin-4-yl)propanoyl]amino}-4-(trifluoromethoxy)benzamide]: the IC50 in test [2] (Homo sapiens, HCT-116, 36 h) is 44 µM; in test [3] it was 0.288 µM.
As to `O=C(CN1CCOCC1)Nc1cc(C(=O)Nc2nnc(-c3ccccc3)s2)ccc1OC1CC1` [Example 170, 4-(cyclopropyloxy)-3-[(morpholin-4-ylacetyl)amino]-N-(5-phenyl-1,3,4-thiadiazol-2-yl)benzamide], the IC50 is ≥ 50 µM in test [2] (Homo sapiens, HCT-116, 36 h) and 0.118 µM in test [3] (Homo sapiens, HCT-116, 36 h).
With `CC(C(=O)Nc1cc(C(=O)Nc2nnc(-c3ccccc3)s2)ccc1CS(C)(=O)=O)N1CCN(C)CC1` (stereo not shown) [Example 231, 3-{[2-(4-methylpiperazin-1-yl)propanoyl]amino}-4-[(methylsulfonyl)methyl]-N-(5-phenyl-1,3,4-thiadiazol-2-yl)benzamide], the IC50 is ≥ 50 µM in test [2] (Homo sapiens, HCT-116, 36 h) and 1.02 µM in test [3].
`O=C(CN1C[C@@H]2C[C@H]1CO2)Nc1cc(C(=O)Nc2nnc(-c3ccccc3)s2)ccc1OC(F)(F)F` [Example 254, 3-{[(1S,4S)-2-oxa-5-azabicyclo[2.2.1]hept-5-ylacetyl]amino}-N-(5-phenyl-1,3,4-thiadiazol-2-yl)-4-(trifluoromethoxy)benzamide]: the IC50 in test [2] (Homo sapiens, HCT-116, 36 h) is ≥ 50 µM; in test [3] (Homo sapiens, HCT-116, 36 h), 4.34 µM.
In the case of `CC(C(=O)Nc1cc(NC(=O)c2ccc(-c3cc(F)cc(F)c3)nc2)ccc1OC(F)(F)F)N1CC2CCC(C1)O2` (stereo not shown) [Example 218, 6-(3,5-difluorophenyl)-N-[3-{[2-(8-oxa-3-azabicyclo[3.2.1]oct-3-yl)propanoyl]amino}-4-(trifluoromethoxy)phenyl] nicotinamide], the IC50 in test [2] stood at 15 µM; in test [3], 0.33 µM.
